{
  "source": "patent US11572358B2",
  "about": "“Solid forms of an sGC stimulator” (Cyclerion Therapeutics, Inc., priority 2016, dated 2023)",
  "test": "Storage stability at 40° C. and 75% relative humidity, XRPD trace before and after",
  "type": "physicochemical",
  "conditions": "stored for 14 months at 40° C. and 75% relative humidity",
  "procedure": "When comparing XRPD spectra, a spectrum will be “substantially similar” to one shown in this disclosure for a particular solid form of Compound I, wherein the characteristic peaks in said spectrum are measured at the same values of °2θ as those shown in the figure of this disclosure, or within a range of + or −0.5 units of °2θ from those peaks shown in said figure.\nX-Ray Powder Diffraction traces were obtained using a D8 Advance, Bruker apparatus; using one of two Methods:\nScan 5-45° 2-theta, 0.02° step size, 1 sec per step; or\nScan 3-40° 2-theta, 0.037° step size, 1.5 sec per step",
  "data": [
    {"smiles": "NC(=O)[C@](O)(CNc1nc(-c2cc(-c3ccon3)n(Cc3ccccc3F)n2)ncc1F)C(F)(F)F", "note": "[Form B, (R)-3,3,3-trifluoro-2-(((5-fluoro-2-(1-(2-fluorobenzyl)-5-(isoxazol-3-yl)-1H-pyrazol-3-yl)pyrimidin-4-yl)amino)methyl)-2-hydroxypropanamide]", "values": [
      {"measurement": "XRPD trace after storage", "result": "essentially unchanged"}
    ]}
  ]
}
